Key:
[1] = Cytotoxicity against human C8166 cells; type: cell-based
[2] = tested on: Human immunodeficiency virus 1; experiment: Antiviral activity against HIV1 infected in human C8166 cells expressing LTR after 3 days by luciferase reporter gene assay; type: functional, organism-based; conditions: Human immunodeficiency virus 1, C8166, 72 h
[3] = biological target: Structural capsid protein (Human immunodeficiency virus 1, UniProt Q76129); experiment: Inhibition of HIV1 capsid-nucleocapsid assembly expressed in Escherichia coli BL21(DE3) after 2 hrs by fluorescence assay
[4] = biological target: Structural capsid protein (Human immunodeficiency virus 1) (UniProt Q76129); experiment: Inhibition of HIV1 capsid-nucleocapsid assembly expressed in Escherichia coli BL21(DE3) at 3.5 uM after 2 hrs by fluorescence assay relative to control
Sequence of Structural capsid protein (Human immunodeficiency virus 1) (Q76129 as listed by the source): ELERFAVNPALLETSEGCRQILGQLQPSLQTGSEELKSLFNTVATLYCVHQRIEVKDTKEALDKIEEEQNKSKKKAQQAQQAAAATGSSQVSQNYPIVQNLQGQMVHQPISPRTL

Sequence of Structural capsid protein (Q76129 whole entry): as the sequence (Q76129 as listed by the source) above

Compound CCN1C(=O)C2(CCc3cc(OC)ccc32)C(=O)N(c2ccccc2)c2cc(C(F)(F)F)ccc21 (stereo unspecified) has a CC50 [1] greater than 4 µM, an EC50 [2] of 510 nM and an IC50 [3] of 160 nM.

For CCN1C(=O)C2(CC(=O)c3cc(O)ccc32)C(=O)N(c2ccccc2)c2cc(C(F)(F)F)ccc21 (stereo unspecified), the IC50 [3] was 1500 nM.

CCN1C(=O)N(c2cccc(OC)c2)C(=O)N(c2ccccc2)c2cc(C(F)(F)F)ccc21 showed a CC50 [1] greater than 20 µM, an EC50 [2] of 1200 nM and an IC50 [3] of 210 nM.

For CCN1C(=O)C2(CCc3c(O)cccc32)C(=O)N(c2ccccc2)c2cc(C(F)(F)F)ccc21 (stereo unspecified), the CC50 [1] was greater than 21 µM, the EC50 [2] was 780 nM and the IC50 [3] was 240 nM.

With CN1C(=O)C(C)(c2ccccc2)C(=O)N(c2ccccc2)c2cc(C(F)(F)F)ccc21 (stereo unspecified) the inhibition [4] was 8%.

In the case of CCN1C(=O)N(c2cccc(C(=O)NC)c2)C(=O)N(c2ccccc2)c2cc(C(F)(F)F)ccc21, the CC50 [1] is reported as greater than 22 µM, the EC50 [2] is reported as 1200 nM and the IC50 [3] is reported as 280 nM.

With CCN1C(=O)N(c2ccc(O)cc2)C(=O)N(c2ccccc2)c2cc(C(F)(F)F)ccc21 the CC50 [1] was 35 µM, the EC50 [2] was 380 nM and the IC50 [3] was 50 nM.

Work on CCN1C(=O)C2(CC(C(C)C)c3cc(O)ccc32)C(=O)N(c2ccccc2)c2cc(C(F)(F)F)ccc21 (stereo unspecified) yielded an IC50 [3] of 1100 nM.

For CN1C(=O)C(c2ccccc2)C(=O)N(c2ccccc2)c2cc(C(F)(F)F)ccc21 (stereo unspecified), the IC50 [3] was 680 nM.

Compound CCN1C(=O)C2(CC(O)c3cc(O)ccc32)C(=O)N(c2ccccc2)c2cc(C(F)(F)F)ccc21 (stereo unspecified) has an IC50 [3] of 2100 nM.

With CCN1C(=O)C2(CCc3ccccc32)C(=O)N(c2ccccc2)c2cc(C(F)(F)F)ccc21 (stereo unspecified) the CC50 [1] was greater than 16 µM, the EC50 [2] was 1600 nM and the IC50 [3] was 460 nM.

CCN1C(=O)N(c2ccc(C(=O)NC)cc2)C(=O)N(c2ccccc2)c2cc(C(F)(F)F)ccc21 gave a CC50 [1] of 31 µM, an EC50 [2] of 480 nM and an IC50 [3] of 130 nM.

Work on CCN1C(=O)N(c2cc(C)c(O)c(Cl)c2)C(=O)N(c2ccccc2)c2cc(C(F)(F)F)ccc21 yielded a CC50 [1] greater than 10 µM, an EC50 [2] of 150 nM and an IC50 [3] of 60 nM.

CCN1C(=O)C2(CCc3ccc(O)cc32)C(=O)N(c2ccccc2)c2cc(C(F)(F)F)ccc21 (stereo unspecified) gave a CC50 [1] greater than 27 µM, an EC50 [2] of 1200 nM and an IC50 [3] of 590 nM.

With CCN1C(=O)C(c2ccccc2)C(=O)N(c2ccccc2)c2cc(C(F)(F)F)ccc21 (stereo unspecified) the EC50 [2] was 2600 nM and the IC50 [3] was 730 nM.

For CCN1C(=O)C2(CC(N)c3cc(O)ccc32)C(=O)N(c2ccccc2)c2cc(C(F)(F)F)ccc21 (stereo unspecified), the IC50 [3] was 3600 nM.

CCN1C(=O)C2(CC(C)c3cc(O)ccc32)C(=O)N(c2ccccc2)c2cc(C(F)(F)F)ccc21 (stereo unspecified) gave an IC50 [3] of 290 nM.

In the case of CCN1C(=O)N(c2cccc(C(=O)NCCN3CCOCC3)c2)C(=O)N(c2ccccc2)c2cc(C(F)(F)F)ccc21, the CC50 [1] is reported as greater than 19 µM, the EC50 [2] is reported as 1100 nM and the IC50 [3] is reported as 220 nM.

With CN1C(=O)C2(CCc3cc(NC(=O)[C@@H]4CCCN4)ccc32)C(=O)N(c2ccccc2)c2cc(C(F)(F)F)ccc21 (stereo partly specified) the CC50 [1] was 11 µM, the EC50 [2] was 520 nM and the IC50 [3] was 110 nM.

Work on CN1C(=O)C2(CCc3cc(N)ccc32)C(=O)N(c2ccccc2)c2cc(C(F)(F)F)ccc21 (stereo unspecified) yielded a CC50 [1] greater than 15 µM, an EC50 [2] of 410 nM and an IC50 [3] of 160 nM.

In the case of CCN1C(=O)N(c2ccc(OC)cc2)C(=O)N(c2ccccc2)c2cc(C(F)(F)F)ccc21, the CC50 [1] is reported as greater than 16 µM, the EC50 [2] is reported as 720 nM and the IC50 [3] is reported as 180 nM.

Compound CCC1CC2(C(=O)N(CC)c3ccc(C(F)(F)F)cc3N(c3ccccc3)C2=O)c2ccc(O)cc21 (stereo unspecified) has an IC50 [3] of 730 nM.

CCN1C(=O)N(c2ccc(O)c(C)c2)C(=O)N(c2ccccc2)c2cc(C(F)(F)F)ccc21 gave a CC50 [1] of 17 µM, an EC50 [2] of 260 nM and an IC50 [3] of 90 nM.

CCN1C(=O)N(c2ccccc2)C(=O)N(c2ccccc2)c2cc(C(F)(F)F)ccc21 gave a CC50 [1] greater than 4 µM, an EC50 [2] of 600 nM and an IC50 [3] of 630 nM.

For CCN1C(=O)C2(CCc3cc(O)ccc32)C(=O)N(c2ccccc2)c2cc(C(F)(F)F)ccc21 (stereo unspecified), the CC50 [1] was 32 µM, the EC50 [2] was 690 nM and the IC50 [3] was 210 nM.

Compound CCN1C(=O)N(c2ccc(C)cc2)C(=O)N(c2ccccc2)c2cc(C(F)(F)F)ccc21 has a CC50 [1] greater than 6.5 µM, an EC50 [2] of 540 nM and an IC50 [3] of 190 nM.

Reference: ChEMBL document CHEMBL2385011, “Optimization of a 1,5-dihydrobenzo[b][1,4]diazepine-2,4-dione series of HIV capsid assembly inhibitors 1: addressing configurational instability through scaffold modification” (Bioorg Med Chem Lett, 2013)
